In brackets after ≈: the same amount, converted by molar mass. Read-outs that look alike come from different tables or passages of the source. Where a SMILES comes first, the peptide text is derived from it.
Columns and labels:
[1] = test system: S. Typhimurium ATCC 14028; format: cell-based, Salmonella Typhimurium; conditions: ATCC 14028
Protocol: (§1) All experiments were conducted at least three different times.

[2] = test system: S. Typhimurium C 7731; format: cell-based, Salmonella Typhimurium; conditions: C 7731
Protocol: as §1

[3] = test system: bacteria; conditions: when no antimicrobial activity is detected at 32 µM, 64 µM is used
Protocol: The minimum inhibitory concentration (MIC) is a vital indicator for evaluating the antimicrobial activity of AMPs. The determination method refers to the improved method of Dong et al.. The strains to be tested were inoculated in Mueller Hinton broth (MHB) medium and cultured at 200 rpm and 37 °C until the logarithmic growth phase, and then the number of colonies was adjusted to approximately 10^5 CFU/mL. The 95 µL of bovine serum albumin (BSA) diluent (0.01% acetic acid and 0.2% BSA) and 5 µL of peptide (1.28 mM) were added to the first row of the 96-well plate, and 50 µL of BSA diluent was added to the other columns. After mixing in the first row, 50 µL of the mixture was aspirated and added to the second column and so on to the 11th row. After being cultured at 37 °C for 18–24 h, the minimum peptide concentration required to inhibit bacterial growth was the MIC value. All experiments were conducted at least three different times.
The safety of peptides is usually assessed by hemolytic activity. The collected blood of type B from healthy donor was centrifuged at 1000×g for 5 min to collect red blood cells. The red blood cells were then washed and resuspended in 10 mM PBS (pH 7.4). Fifty microliters of diluted red blood cells and an equal volume of peptide solution (2–128 µM) were incubated in a 96-well plate at 37 °C for 1 h. The red blood cell suspension treated with 0.1% Triton X-100 was used as a positive control (100% hemolysis), and untreated blood cell suspension was used as a negative control. The 96-well plate was centrifuged at 1000×g for 5 min at 4 °C, and then the supernatant was transferred to a new 96-well plate. The absorbance at OD570 was measured with a microplate reader.

[4] = test system: P. aeruginosa ATCC 27853; format: cell-based, Pseudomonas aeruginosa; conditions: ATCC 27853
Protocol: as §1

[5] = test system: E. coli UB 1005; format: cell-based, Escherichia coli
Protocol: as §1

[6] = test system: E. coli ATCC 078; format: cell-based, Escherichia coli; conditions: ATCC 078
Protocol: as §1

[7] = test system: E. coli ATCC 25922; format: cell-based, Escherichia coli; conditions: ATCC 25922
Protocol: as §1

[8] = test system: S. epidermidis ATCC 12228; format: cell-based, Staphylococcus epidermidis; conditions: ATCC 12228
Protocol: as §1

[9] = test system: S. faecalis ATCC 29212; format: cell-based, Streptococcus faecalis; conditions: ATCC 29212
Protocol: as §1

[10] = test system: S. aureus ATCC 25923; format: cell-based, Staphylococcus aureus; conditions: ATCC 25923
Protocol: as §1

[11] = test system: S. aureus ATCC 29213; format: cell-based, Staphylococcus aureus; conditions: ATCC 29213
Protocol: as §1

[12] = test system: human red blood cells; assay: Hemolytic activity assay; format: cell-based; conditions: for MHC (minimum hemolysis concentration): concentration of peptide that causes 20% hemolysis, human red blood cells in 10 mM PBS pH 7.4, 37 °C 1 h, OD570
[13] = test system: E. coli ATCC 25922; format: cell-based, Escherichia coli; conditions: ATCC 25922; remark: listed apart in the source
[14] = test system: E. coli ATCC 25922; format: cell-based, Escherichia coli; conditions: ATCC 25922; remark: listed apart in the source
Protocol: as §1
The salt ions were added to the BSA solution and configured into different final concentrations of salt ions (150 mM NaCl, 4.5 mM KCl, 6 µM NH4Cl, 8 µM ZnCl2, 1 mM MgCl2, 2 mM CaCl2, and 4 µM FeCl3) solutions. The method discribed as above was referred to determine the MIC value of rLG against E. coli ATCC 25922 in the presence of different concentrations of salt ions.

Compound | MIC [1] [µM] | MIC [2] [µM] | GM (geometric mean of the MIC value of the peptide against bacteria) [3] [µM] | MIC [4] [µM] | MIC ([5]; UB 1005) [µM] | MIC [6] [µM] | MIC [7] [µM] | MIC [8] [µM] | MIC [9] [µM] | MIC [10] [µM] | MIC [11] [µM] | MHC (minimum hemolysis concentration) [12] [µM] | also measured
CC[C@H](C)[C@H](NC(=O)[C@H](CCCNC(=N)N)NC(=O)[C@H](CCC(N)=O)NC(=O)[C@@H](NC(=O)[C@@H](NC(=O)[C@H](CCCNC(=N)N)NC(=O)[C@H](CCCCN)NC(=O)[C@H](Cc1ccccc1)NC(=O)[C@H](CCCNC(=N)N)NC(=O)[C@H](CC(C)C)NC(=O)[C@H](Cc1ccccc1)NC(=O)[C@H](CCCNC(=N)N)NC(=O)[C@H](CCCCN)NC(=O)[C@@H](NC(=O)[C@H](CCCNC(=N)N)NC(=O)[C@H](CCC(N)=O)NC(=O)[C@@H](NC(=O)[C@@H](NC(=O)[C@H](CCCNC(=N)N)NC(=O)[C@H](CCCCN)NC(=O)[C@@H](N)Cc1ccccc1)[C@@H](C)CC)C(C)C)[C@@H](C)CC)[C@@H](C)CC)C(C)C)C(=O)N[C@@H](CCCCN)C(=O)N[C@@H](CCCNC(=N)N)C(=O)N[C@@H](Cc1ccccc1)C(=O)N[C@@H](CC(C)C)C(=O)N[C@@H](CCCNC(=N)N)C(=O)O [(FR)2] (H-FKRIVQRIKRFLRFKRIVQRIKRFLR-OH) | 2.22 ± 0.63 (≈ 7.78 µg/mL) | 1.11 ± 0.31 (≈ 3.89 µg/mL) | 1.62 | 2.22 ± 0.63 (≈ 7.78 µg/mL) | 1.00 ± 0.00 (≈ 3.5 µg/mL) | 1.11 ± 0.31 (≈ 3.89 µg/mL) | 1.22 ± 0.41 (≈ 4.27 µg/mL) | 2.00 ± 0.00 (≈ 7 µg/mL) | 2.00 ± 0.00 (≈ 7 µg/mL) | 3.78 ± 0.63 (≈ 13.2 µg/mL) | 2.00 ± 0.00 (≈ 7 µg/mL) | 16 | hemolysis (blood cells destroyed) ([12]; at the highest peptide concentration (128 μM), human red blood cells, 37 °C 1 h, 0.1% Triton X-100 = 100%): approximately 43%
CC[C@H](C)[C@H](NC(=O)[C@H](CCCNC(=N)N)NC(=O)[C@H](CCC(N)=O)NC(=O)[C@@H](NC(=O)[C@@H](NC(=O)[C@H](CCCNC(=N)N)NC(=O)[C@H](CCCCN)NC(=O)[C@H](Cc1ccccc1)NC(=O)[C@H](CO)NC(=O)CNC(=O)CNC(=O)CNC(=O)CNC(=O)[C@H](CCCNC(=N)N)NC(=O)[C@H](CC(C)C)NC(=O)[C@H](Cc1ccccc1)NC(=O)[C@H](CCCNC(=N)N)NC(=O)[C@H](CCCCN)NC(=O)[C@@H](NC(=O)[C@H](CCCNC(=N)N)NC(=O)[C@H](CCC(N)=O)NC(=O)[C@@H](NC(=O)[C@@H](NC(=O)[C@H](CCCNC(=N)N)NC(=O)[C@H](CCCCN)NC(=O)[C@@H](N)Cc1ccccc1)[C@@H](C)CC)C(C)C)[C@@H](C)CC)[C@@H](C)CC)C(C)C)C(=O)N[C@@H](CCCCN)C(=O)N[C@@H](CCCNC(=N)N)C(=O)N[C@@H](Cc1ccccc1)C(=O)N[C@@H](CC(C)C)C(=O)N[C@@H](CCCNC(=N)N)C(=O)O [LG] (H-FKRIVQRIKRFLRGGGGSFKRIVQRIKRFLR-OH) | – | – | 2.00 | – | 1.22 ± 0.41 (≈ 4.66 µg/mL) | – | – | – | – | – | – | 64 | MIC ([5]; Table 3, recombinant vs synthetic LG, mean ± SD of three independent experiments): 1.33 ± 0.25 µM
CC[C@H](C)[C@H](NC(=O)[C@H](CCCNC(=N)N)NC(=O)[C@H](CCC(N)=O)NC(=O)[C@@H](NC(=O)[C@@H](NC(=O)[C@H](CCCNC(=N)N)NC(=O)[C@H](CCCCN)NC(=O)[C@@H](N)Cc1ccccc1)[C@@H](C)CC)C(C)C)C(=O)N[C@@H](CCCCN)C(=O)N[C@@H](CCCNC(=N)N)C(=O)N[C@@H](Cc1ccccc1)C(=O)N[C@@H](CC(C)C)C(=O)N[C@@H](CCCNC(=N)N)C(=O)O [FR] (H-FKRIVQRIKRFLR-OH) | 8.00 ± 0.00 (≈ 14.1 µg/mL) | 8.00 ± 0.00 (≈ 14.1 µg/mL) | – | 16.00 ± 0.00 (≈ 28.2 µg/mL) | 2.44 ± 0.83 (≈ 4.29 µg/mL) | 8.00 ± 0.00 (≈ 14.1 µg/mL) | 7.11 ± 1.66 (≈ 12.5 µg/mL) | 3.78 ± 0.63 (≈ 6.65 µg/mL) | 4.00 ± 0.00 (≈ 7.04 µg/mL) | 16.00 ± 0.00 (≈ 28.2 µg/mL) | 8.00 ± 0.00 (≈ 14.1 µg/mL) | – | MIC, Control [13]: 8 µM (≈ 14.1 µg/mL); MIC under physiological salt concentration, CaCl2 [14]: > 32 µM; MIC under physiological salt concentration, FeCl3 [14]: 16 µM; MIC under physiological salt concentration, GM [14]: 19.50 µM; MIC under physiological salt concentration, KCl [14]: 8 µM; MIC under physiological salt concentration, MgCl2 [14]: 32 µM; MIC under physiological salt concentration, NH4Cl [14]: 8 µM; MIC under physiological salt concentration, NaCl [14]: > 32 µM; MIC under physiological salt concentration, ZnCl2 [14]: 8 µM
CC[C@H](C)[C@H](NC(=O)[C@H](CCCNC(=N)N)NC(=O)[C@H](CCC(N)=O)NC(=O)[C@@H](NC(=O)[C@@H](NC(=O)[C@H](CCCNC(=N)N)NC(=O)[C@H](CCCCN)NC(=O)[C@H](Cc1ccccc1)NC(=O)[C@H](C)NC(=O)[C@H](CCCCN)NC(=O)[C@H](C)NC(=O)[C@H](C)NC(=O)[C@H](C)NC(=O)[C@H](CCC(=O)O)NC(=O)[C@H](C)NC(=O)[C@H](CCCNC(=N)N)NC(=O)[C@H](CC(C)C)NC(=O)[C@H](Cc1ccccc1)NC(=O)[C@H](CCCNC(=N)N)NC(=O)[C@H](CCCCN)NC(=O)[C@@H](NC(=O)[C@H](CCCNC(=N)N)NC(=O)[C@H](CCC(N)=O)NC(=O)[C@@H](NC(=O)[C@@H](NC(=O)[C@H](CCCNC(=N)N)NC(=O)[C@H](CCCCN)NC(=O)[C@@H](N)Cc1ccccc1)[C@@H](C)CC)C(C)C)[C@@H](C)CC)[C@@H](C)CC)C(C)C)C(=O)N[C@@H](CCCCN)C(=O)N[C@@H](CCCNC(=N)N)C(=O)N[C@@H](Cc1ccccc1)C(=O)N[C@@H](CC(C)C)C(=O)N[C@@H](CCCNC(=N)N)C(=O)O [LA] (H-FKRIVQRIKRFLRAEAAAKAFKRIVQRIKRFLR-OH) | 4.44 ± 1.25 (≈ 18.3 µg/mL) | 1.11 ± 0.31 (≈ 4.57 µg/mL) | 8.00 | 4.44 ± 1.25 (≈ 18.3 µg/mL) | 1.11 ± 0.31 (≈ 4.57 µg/mL) | 2.44 ± 0.83 (≈ 10 µg/mL) | 2.22 ± 0.63 (≈ 9.14 µg/mL) | > 32 | > 32 | > 32 | > 32 | 32 | –
CC[C@H](C)[C@H](NC(=O)[C@H](CCCNC(=N)N)NC(=O)[C@H](CCC(N)=O)NC(=O)[C@@H](NC(=O)[C@@H](NC(=O)[C@H](CCCNC(=N)N)NC(=O)[C@H](CCCCN)NC(=O)[C@@H](N)Cc1ccccc1)[C@@H](C)CC)C(C)C)C(=O)N[C@@H](CCCCN)C(=O)N[C@@H](CC(=O)O)C(=O)N[C@@H](Cc1ccccc1)C(=O)N[C@@H](CC(C)C)C(=O)N[C@@H](CCCNC(=N)N)C(=O)O [FD] (H-FKRIVQRIKDFLR-OH) | 32.00 ± 0.00 (≈ 55 µg/mL) | 32.00 ± 0.00 (≈ 55 µg/mL) | – | > 32 | 16.00 ± 0.00 (≈ 27.5 µg/mL) | 16.00 ± 0.00 (≈ 27.5 µg/mL) | 32.00 ± 0.00 (≈ 55 µg/mL) | > 32 | > 32 | > 32 | > 32 | – | –

— publication PMC8305873, “Design and heterologous expression of a novel dimeric LL37 variant in Pichia pastoris” (Microbial Cell Factories, 2021)
